Source: ChEMBL document CHEMBL3351486 (Bioorg Med Chem Lett, 2014)
The source made the active and inactive calls. No cut-off for these calls is given here.

Key:
[1] = Cytotoxicity against BL2/B95 cells (unknown origin) assessed as cell killing after 24 hrs by MTT assay; assay type: functional, cell-based; conditions: BL2/B95, 24 h
[2] = Cytotoxicity against BL2 cells (unknown origin) assessed as cell killing after 24 hrs by MTT assay; assay type: functional, cell-based; conditions: BL2, 24 h
[3] = Cytotoxicity against Remb1 cells (unknown origin) assessed as cell killing after 24 hrs by MTT assay; assay type: functional, cell-based; conditions: Remb1, 24 h
[4] = target: Induced myeloid leukemia cell differentiation protein Mcl-1/BH3-interacting domain death agonist (Homo sapiens, UniProt Q07820); test: Inhibition of Mcl1/Bid (unknown origin) interaction; assay type: protein assay
Bcl-xL/BAK = Bcl-xL/BAK (Homo sapiens, UniProt Q07817); test: Inhibition of Bcl-xL/Bak (unknown origin) interaction; assay type: protein assay
[5] = Induction of apoptosis in BL2 cells (unknown origin) at 7.5 uM after 24 hrs by Annexin V/propidium iodide staining-based flow cytometric analysis; assay type: functional
[6] = Induction of apoptosis in BL2/B95 cells (unknown origin) at 7.5 uM after 24 hrs by Annexin V/propidium iodide staining-based flow cytometric analysis; assay type: functional
[7] = Induction of apoptosis in Remb1 cells (unknown origin) at 7.5 uM after 24 hrs by Annexin V/propidium iodide staining-based flow cytometric analysis; assay type: functional
[8] = Cytotoxicity against BL2/B95 cells (unknown origin) assessed as cell killing at 10 uM after 24 hrs by MTT assay; assay type: functional
BL2 = test: Induction of apoptosis in BL2 cells (unknown origin) assessed as PARP cleavage at 7.5 uM after 24 hrs by Western blot analysis; assay type: functional, cell-based
BL2/B95 = test: Induction of apoptosis in BL2/B95 cells (unknown origin) assessed as PARP cleavage at 7.5 uM after 24 hrs by Western blot analysis; assay type: functional, cell-based
Remb1 = test: Induction of apoptosis in Remb1 cells (unknown origin) assessed as PARP cleavage at 7.5 uM after 24 hrs by Western blot analysis; assay type: functional, cell-based
[9] = Cytotoxicity against BL2 cells (unknown origin) assessed as cell killing at 10 uM after 24 hrs by MTT assay; assay type: functional
[10] = Cytotoxicity against Remb1 cells (unknown origin) assessed as cell killing at 10 uM after 24 hrs by MTT assay; assay type: functional

Chain of Bcl-xL/BAK (Q07817 whole entry): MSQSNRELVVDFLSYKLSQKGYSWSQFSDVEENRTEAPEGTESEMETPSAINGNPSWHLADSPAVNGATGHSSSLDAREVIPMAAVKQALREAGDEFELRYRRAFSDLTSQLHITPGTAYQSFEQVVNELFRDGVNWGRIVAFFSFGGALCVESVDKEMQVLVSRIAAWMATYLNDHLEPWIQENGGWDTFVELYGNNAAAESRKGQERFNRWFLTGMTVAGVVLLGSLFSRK
Chain of Bcl-xL/BAK (Q16611 whole entry, further chain): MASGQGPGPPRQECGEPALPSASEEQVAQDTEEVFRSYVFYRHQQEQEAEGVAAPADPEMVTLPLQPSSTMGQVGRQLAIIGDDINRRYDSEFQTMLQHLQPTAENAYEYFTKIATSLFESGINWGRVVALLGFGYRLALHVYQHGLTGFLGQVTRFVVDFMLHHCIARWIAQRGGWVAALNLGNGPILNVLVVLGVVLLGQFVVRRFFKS
Chain of Induced myeloid leukemia cell differentiation protein Mcl-1/BH3-interacting domain death agonist (Q07820 whole entry, the tested form may be a part): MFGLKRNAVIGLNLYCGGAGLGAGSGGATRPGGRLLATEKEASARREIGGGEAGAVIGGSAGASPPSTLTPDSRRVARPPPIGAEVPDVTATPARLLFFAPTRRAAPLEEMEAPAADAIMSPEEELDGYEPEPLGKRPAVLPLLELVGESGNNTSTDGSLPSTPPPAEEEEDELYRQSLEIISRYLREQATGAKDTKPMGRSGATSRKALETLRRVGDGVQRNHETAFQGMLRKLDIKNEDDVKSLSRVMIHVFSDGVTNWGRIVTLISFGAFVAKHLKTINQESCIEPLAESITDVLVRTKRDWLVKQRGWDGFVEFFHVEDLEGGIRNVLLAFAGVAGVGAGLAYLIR
Chain of Induced myeloid leukemia cell differentiation protein Mcl-1/BH3-interacting domain death agonist (P55957 whole entry, further chain, the tested form may be a part): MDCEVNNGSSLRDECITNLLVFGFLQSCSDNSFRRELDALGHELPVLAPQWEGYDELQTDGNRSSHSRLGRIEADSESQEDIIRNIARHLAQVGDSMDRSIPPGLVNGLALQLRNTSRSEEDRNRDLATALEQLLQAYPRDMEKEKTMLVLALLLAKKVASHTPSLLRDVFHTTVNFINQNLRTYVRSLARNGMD

Ki (Bcl-xL/BAK) [µM] | SMILES | IC50 [1] [µM] | IC50 [2] [µM] | IC50 [3] [µM] | Ki [4] [µM] | Activity [5] [%] | Activity [6] [%] | Activity [7] [%] | Activity [8] [%] | Activity (BL2) | Activity (BL2/B95) | Activity (Remb1) | Activity [9] [%] | Activity [10] [%]
– | CC(C)=CCC[C@@H](C)[C@H]1C=C[C@@]2(C(=O)O)[C@H](CC(C)=C[C@@H]2/C=C(\C)[C@H]2CC[C@H](C(=O)O)CC2)C1 | > 20 | > 20 | > 20 | – | – | – | – | – | – | – | – | – | –
7.5 | CC(C)=CCC[C@H](C)[C@@H]1C=C[C@]2(C(=O)O)[C@@H](CC(C)=C[C@H]2/C=C(\C)c2ccc(C(=O)O)cc2)C1 | > 20 | > 20 | > 20 | 15.9 | – | – | – | – | – | – | – | – | –
– | CC(C)=CCC[C@@H](C)[C@@H]1C=C[C@]2(C(=O)O)[C@@H](CC(C)=C[C@H]2/C=C(\C)[C@H]2CC[C@H](C(=O)O)CC2)C1 | > 20 | > 20 | > 20 | – | – | – | – | – | – | – | – | – | –
4.6 | CC(C)=CCC[C@@H](C)[C@@H]1C=C[C@]2(C(=O)O)[C@@H](CC(C)=C[C@H]2/C=C(\C)c2ccc(C(=O)O)cc2)C1 | 8.6 | 8.5 | 8.6 | 9.1 | 71 | 52 | 54 | >50 | Active | Active | Active | >50 | >50
– | CC(C)=CCC[C@H](C)[C@H]1C=C[C@@]2(C(=O)O)[C@H](CC(C)=C[C@@H]2/C=C(\C)[C@H]2CC[C@H](C(=O)O)CC2)C1 | > 20 | > 20 | > 20 | – | – | – | – | – | – | – | – | – | –
